Experimental data as given in US4025630A, “Anesthesia methods using benzopyrans and esters thereof as pre-anesthesia medication” (Abbott Laboratories, priority 1974, dated 1977).
Where a name gives a salt, the structure may show the parent alone.

Assays:
[1] = Solubility in water of the product; conditions: powder
[2] = Determination of the Anesthetic ED50 and the LD50 of Pentothal; type: in vivo, female Swiss-Webster mice; conditions: mouse, in vivo; intravenous, mice, observed one week; read-out: LD50 (95% C.L.)
Procedure: (§1) An intravenous potency/lethality ratio for Pentothal was established in mice as follows
(§2) Determination of the Anesthetic ED50 and the LD50 of Pentothal
(§3) Groups of 10 female Swiss-Webster (A. R. Schmidt, Madison, Wisconsin) mice weighing between 16-25 grams were used for all studies. Intravenous injections were made into the tail veins. The drugs were prepared daily in Sterile Water (Abbott List No. 1590). […] LD50 's ED50 's, and their associated conficence limits were calculated by the method of Litchfield and Wilcoxon (1949).

mice [3] = assay: as above; type: in vivo, female Swiss-Webster mice
Procedure: as §1, §2, §3

mice [4] = assay: Activity of benzopyrans as adjuvants to halothane anesthesia (Carson-Domino method); type: in vivo; design: key: +: statistically significant increase; -: statistically significant decrease; NE: no effect; (): large but non-statistically significant change
Source text: (§4) A modification of the method of Carson and Domino (Anesthesiology, 23:187-192, 1962) was used.
(§5) Groups of 10 female Swiss-Webster (A. R. Schmidt, Madison, Wisconsin) mice weighing between 16-24 grams were pre-treated with various doses or at various times with drug either oral or by intravenous injection of the tail veins. The mice were placed into 2 liter beakers (5 animals per beaker). The tops of the beakers were covered with Parafilm to which a gauze sponge had been attached. 0.1 cc of Penthrane or halothrane was injected through the Parafilm into the sponge at 5 minute intervals. […] These parameters were measured by the use of a stop watch. Statistical analysis (one-way analysis of variance) was done on the computer.
A number of benzopyran derivatives were screened in mice as adjuvants to the anesthetic actions of halothane. The Carson-Domino method (Anesthesiology 23:187, 1962) was used to measure anesthetic induction times and duration of anesthesia as evidenced by loss of righting reflex, as well as changes in the lethality of halothane.
Screening doses of 5 mg./kg. intravenously or 20 mg./kg. orally were used.

mice [5] = assay: Interaction of Benzopyranopyridines with Pentothal (loss of righting reflex, sleep); type: in vivo, female Swiss-Webster mice
Procedure: as §3
Interaction of Benzopyranopyridines with Pentothal
1. Animals pretreated with SP-106, 1 mg./kg. intravenously 0-30 minutes prior to Pentothal, 10 mg./kg. […] Longer pretreatment times (60 to 120 minutes) had no effect.

mice [6] = assay: Interaction of Benzopyranopyridines with Penthrane (modified Carson and Domino method); type: in vivo, female Swiss-Webster mice; conditions: 1 to 5 mg./kg. 15 minutes prior to Penthrane vapors
Source text: as §4, §5

mice [7] = assay: Interaction of Benzopyranopyridines with Fluothane (halothane) (modified Carson and Domino method); type: in vivo, female Swiss-Webster mice; conditions: 1 to 5 mg./kg. 15 minutes prior to halothane vapors
Source text: as §4, §5

[8] = 20 mg/kg p.o., pretreatment time 1 hr
[9] = 20 mg/kg p.o., pretreatment time 2 hr
[10] = 20 mg/kg p.o., pretreatment time 3 hr
[11] = 20 mg/kg p.o., pretreatment time 4 hr
[12] = 5 mg/kg i.v., pretreatment time 15 minutes

Question: For CC1CCC2=C(C1)c1c(OC(=O)CCCN3CCCCC3)cc(C(C)CCCc3ccc(F)cc3)cc1OC2(C)C (centres unmarked) [Example 71], which solubility in water [1] is on record?
Answer: soluble in water

Question: For CCCC(C)C1(CC)C(=O)NC(=S)NC1=O (centres unmarked) [Pentothal, sodium thiopental], which LD50 at 168 h [2] is on record?
Answer: 76 mg/kg

Question: What about the ED50 (mice [3]; Mus musculus, intravenous, mice, loss of righting reflex, read-out: Anesthetic ED50 (95% C.L.)) of the same molecule?
Answer: 20 mg/kg

Question: What about the pH (mice [3]; Remarks: irritating (pH 11)) of the same molecule?
Answer: 11

Question: And the “Remarks: duration” value (mice [3]; intravenous, mice)?
Answer: short duration

Question: And the “Remarks: irritation” value (mice [3]; intravenous, mice)?
Answer: irritating

Question: And the “Remarks: onset” value (mice [3]; intravenous, mice)?
Answer: Immediate onset

Question: What about the “Therapeutic Index” value (mice [3]; intravenous, mice) of the same molecule?
Answer: ~ 4

Question: Which results are given for C#CCN1CCC2=C(C1)c1c(O)cc(C(C)C(C)CCCCC)cc1OC2(C)C (centres unmarked) [SP-1]?
Answer: Duration (mice [4]; [8]): +; Lethality (mice [4]; [8]): -; Onset (mice [4]; [8]): +; Duration (mice [4]; [9]): +; Lethality (mice [4]; [9]): NE; Onset (mice [4]; [9]): -; Duration (mice [4]; [10]): +; Lethality (mice [4]; [10]): NE; Onset (mice [4]; [10]): -; Duration (mice [4]; [11]): +; Lethality (mice [4]; [11]): NE; Onset (mice [4]; [11]): -

Question: Which Duration (mice [4]; [12]) does the source give for CCCCCC(C)C(C)c1cc(OC(=O)CCCN2CCCCC2)c2c(c1)OC(C)(C)C1=C2CCC1 (centres unmarked) [SP-102] here?
Answer: +

Question: And the Lethality (mice [4]; [12])?
Answer: NE

Question: And the Onset (mice [4]; [12])?
Answer: +

Question: Which results are given for C#CCN1CCC2=C(C1)c1c(OC(=O)CCCN3CCCCC3)cc(C(C)C(C)CCCCC)cc1OC2(C)C.Cl (centres unmarked) [SP-106, 5,5-Dimethyl-8-(3-methyl-2-octyl)-10-[4-(piperidino)butyryloxy]-2-(2-propynyl)-1,2,3,4-tetrahydro-5H-[1]benzopyrano[3,4-d]pyridine hydrochloride]?
Answer: Duration (mice [4]; [12]): +; Lethality (mice [4]; [12]): -; Onset (mice [4]; [12]): -; peak effect (mice [5]; 1 mg./kg. intravenously 0-30 minutes prior to Pentothal 10 mg./kg.): 5 min; anesthesia (loss of righting reflex) (mice [5]; 1 mg./kg. intravenously 0-30 minutes prior to Pentothal 10 mg./kg. (non-anesthetic dose)): produced anesthesia; sleep duration (mice [5]; 1 and 5 mg./kg. intravenously 15 minutes prior to anesthetic dose (30 mg./kg.) of Pentothal): significantly lengthened the sleep; effect at longer pretreatment times (mice [5]; 60 to 120 minutes pretreatment, 1 mg./kg. intravenously, Pentothal 10 mg./kg.): had no effect; duration of anesthesia (mice [6]): significantly lengthened the duration of anesthesia; onset to sleep (mice [6]): signficantly shortened onset to sleep; time to death (mice [6]): had no effect or lengthened time to death; Onset (mice [7]): reduction of onset; duration of anesthesia (mice [7]): increased the duration of anesthesia; time to death (mice [7]): increased

Question: With CCCCCc1cc(OC(=O)CCCN2CCOCC2)c2c(c1)OC(C)(C)C1CCC(C)=CC21 (centres unmarked) [SP-111] as the molecule, how does the Duration (mice [4]; [12]) read?
Answer: +

Question: And the Lethality (mice [4]; [12])?
Answer: NE

Question: And the Onset (mice [4]; [12])?
Answer: -

Question: With C#CCN1CCC2=C(C1)c1c(OC(=O)CCCN3CCOCC3)cc(C(C)C(C)CCCCC)cc1OC2(C)C.Cl (centres unmarked) [SP-112, 5,5-Dimethyl-10-[4-(morpholino)butyryloxy]-8-(3-methyl-2-octyl)-2-(2-propynyl)-1,2,3,4-tetrahydro-5H-[1]-benzopyrano [3,4-d] pyridine hydrochloride] as the molecule, how does the Duration (mice [4]; [12]) read?
Answer: +

Question: What about the Lethality (mice [4]; [12]) of the same molecule?
Answer: NE

Question: And the Onset (mice [4]; [12])?
Answer: -

Question: With CCCCCC(C)C(C)c1cc(OC(=O)CCCN2CCCCC2)c2c(c1)OC(C)(C)C1=C2CCCS1 (centres unmarked) [SP-117] as the molecule, how does the Lethality (mice [4]; [12]) read?
Answer: NE

Question: And the Onset (mice [4]; [12])?
Answer: +

Question: What does the source list for C#CCN1CCC2=C(C1)c1c(OC(=O)CCCN3CCCCC3C)cc(C(C)C(C)CCCCC)cc1OC2(C)C (centres unmarked) [SP-159, 5,5-Dimethyl-10-[4-(2-methylpiperidino)butyryloxy]-8-(3-methyl-2-octyl)-2-(2-propynyl)-1,2,3,4-tetrahydro-5H-[1]benzopyrano [3,4-d] pyridine hydrochloride]?
Answer: Duration (mice [4]; [12]): +; Lethality (mice [4]; [12]): NE; Onset (mice [4]; [12]): -

Question: With C#CCN1CCC2=C(C1)c1c(OC(=O)C(C)CCN3CCCCC3)cc(C(C)C(C)CCCCC)cc1OC2(C)C (centres unmarked) [SP-178, 5,5-Dimethyl-10-[2-methyl-4-(piperidino)butyryloxy]-8-(3-methyl-2-octyl)-2-(2-propynyl)-1,2,3,4-tetrahydro-5H-[1]benzopyrano[3,4-d] pyridine dihydrochloride] as the molecule, how does the Duration (mice [4]; [12]) read?
Answer: +

Question: What about the Lethality (mice [4]; [12]) of the same molecule?
Answer: NE

Question: What about the Onset (mice [4]; [12]) of the same molecule?
Answer: -

Question: For C#CCN1CCC2=C(C1)c1c(OC(=O)C(C)CCN3CCCCC3C)cc(C(C)C(C)CCCCC)cc1OC2(C)C (centres unmarked) [SP-204], which Duration (mice [4]; [12]) is on record?
Answer: +

Question: And the Lethality (mice [4]; [12])?
Answer: -

Question: What about the Onset (mice [4]; [12]) of the same molecule?
Answer: -

Question: With C#CCN1CCC2=C(C1)c1c(OC(=O)CCCN3CCCCC3)cc(C(C)CCCc3ccc(F)cc3)cc1OC2(C)C (centres unmarked) [SPA-109] as the molecule, how does the Duration (mice [4]; [12]) read?
Answer: +

Question: And the Lethality (mice [4]; [12])?
Answer: NE

Question: What about the Onset (mice [4]; [12]) of the same molecule?
Answer: -
